Data on 36 compounds can be found in US6342503B1, “1N-alkyl-n-arylpyrimidinamines and derivatives thereof” (DuPont Pharmaceuticals Company, priority 1993, dated 2002).

Where a name gives a salt, the structure may show the parent alone. Read-outs that look alike come from different tables or passages of the source. Bounds are passed on as bounds.

In one series the target is T1, CRF receptor (Rattus norvegicus, UniProt P35353).
T1 construct: 100 μl of membrane suspension as prepared above to give a total reaction volume of 300 μl; from tissue; host or cells: rat cerebral cortex membrane homogenate
T1 sequence (P35353 24-415): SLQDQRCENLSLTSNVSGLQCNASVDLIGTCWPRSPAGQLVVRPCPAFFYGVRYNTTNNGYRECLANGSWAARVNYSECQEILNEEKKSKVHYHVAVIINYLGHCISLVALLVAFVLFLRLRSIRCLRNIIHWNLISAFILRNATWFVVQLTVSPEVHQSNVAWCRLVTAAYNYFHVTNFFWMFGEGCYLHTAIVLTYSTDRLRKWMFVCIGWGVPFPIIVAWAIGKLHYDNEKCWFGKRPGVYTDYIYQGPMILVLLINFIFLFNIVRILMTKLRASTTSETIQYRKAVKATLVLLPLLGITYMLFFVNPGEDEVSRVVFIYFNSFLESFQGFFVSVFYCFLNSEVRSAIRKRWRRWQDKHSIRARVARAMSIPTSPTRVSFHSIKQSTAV
Description: In vitro CRF receptor binding assay (competition with [125I] ovine CRF, rat cortex membranes). As to conditions: read-out: Inhibition Ki. The protocol: In vitro Receptor Binding Assay
Tissue Preparation: Male Sprague Dawley rats (180-200 g) were sacrificed by decapitation and the cortex was dissected on ice, frozen whole in liquid nitrogen and stored at −70° C. until use. On the day of assay, frozen tissue was weighed and homogenized in 20 volumes of ice cold buffer containing 50 mM Tris, 10 mM MgCl2, 2 mM EGTA, pH 7.0 at 22° C. using a Polytron (Brinkmann Instruments, Westbury, N.Y.; setting 6) for 20 s. The homogenate was centrifuged at 48,000× g for 10 min at 4° C. The supernatant was discarded, and the pellet was re-homogenized in the same volume of buffer and centrifuged at 48,000× g for 10 min at 4° C. The resulting pellet was resuspended in the above buffer to a final concentration of 20-40 mg original wet weight/mL and used in the assays described below.
CRF Receptor Binding: Receptor binding assays were carried out essentially as described by E. B. De Souza, J. Neurosci. […]
All assays were carried out at equilibrium for 2 h at 22° C. as described by E. B. De Souza, J. Neurosci. […] The reaction was terminated by centrifugation of the tubes in a Beckman microfuge for 5 min at 12,000× g. Aliquots of the supernatant were collected to determine the “free” radioligand concentration. The remaining supernatant was aspirated and the pellets washed gently with ice-cold PBS plus 0.01% Triton X-100; centrifuged again and monitored for bound radioactivity as described above. […] This program has the distinct advantage of fitting the raw experimental data on an untransformed coordinate system where errors are most likely to be normally distributed and uncorrelated with the independent variable. […] The parameters for the affinity constants (KD) and receptor densities (Bmax) are also provided along with statistics on the general “fit” of the estimated parameters to the raw data.
Competition Curve Analysis
The resulting pellets were surface washed twice by centrifugation with 1 mL of ice-cold phosphate buffered saline and 0.01% Triton X-100; the supernatants discarded and the pellets monitored for radioactivity at approximately 80% efficiency. The level of non-specific binding was defined in the presence of […] unlabeled rat/humanCRF (r/hCRF). Data from competition curves were analyzed by the program LIGAND. […] Routinely, the data were analyzed using a one- and two-site model comparing the “goodness of fit” between the models in order to accurately determine the Ki. Statistical analyses provided by LIGAND allowed the determination of whether a single-site or multiple-site model should be used.
In Table 17; the Ki values were determined using the assay conditions described above.

Turning to `CCN(c1cc(OC)nc(OC)n1)c1ccc(C(C)C)cc1Br` (as salt: hydrochloride) [compound 130], the melting point (commonly the temperature of the solid-liquid transition) fell in the range of 104 to 106 °C. Consider `Cc1cc(C)nc(N(CC2CC2)c2ccc(C(C)C)cc2Br)n1` (as salt: hydrochloride) [compound 33], for which the melting point fell in the range of 146 to 148 °C. Compound `CCN(c1nc(C)nc(N2CCOCC2)n1)c1ccc(C(C)C)cc1Br` (as salt: hydrochloride) [compound 134, N-[2-bromo-4-(1-methylethyl)phenyl]-N-ethyl-4-methyl-6-(4-morpholinyl)-1,3,5-triazin-2-amine] came in with a melting point of 59 to 63 °C. In the case of `Cc1cc(Cl)c2c(C#N)cn(-c3ccc(C(C)C)cc3Br)c2n1` [Synth. Ex. 74, 1-(2-Bromo-4-isopropylphenyl)-4-chloro-3-cyano-6-methyl-7-azaindole], the melting point worked out at 123.3 °C. Same read-out and setting: as for `C=CCN(c1nc(C)cc(N2CCOCC2)n1)c1ccc(C(C)C)cc1Br` (as salt: hydrochloride) [compound 17], the figure is 208 to 211 °C; as for `CCc1ccc(N(CC)c2nc(C)cc(C)n2)c(SC)c1` (as salt: hydrochloride) [compound 182, N-(4-ethyl-2-methylthiophenyl)-N-ethyl-4,6-dimethyl-2-pyrimidinamine], 140 to 141 °C; as for `CCN(c1nc(C)cc(C)n1)c1ccc(C(C)C)cc1SC` (as salt: hydrochloride) [compound 170, N-(2-methylthio-4-(1-methylethyl)phenyl)-N-ethyl-4,6dimethyl-2-pyrimidinamine], 141 to 142 °C. The same measure, in the same setting: as for `CCN(c1nccc(C)n1)c1ccc(C(C)C)cc1Br` (as salt: hydrochloride) [compound 49, N-(2-Bromo-4-(1-methylethyl)phenyl)-N-ethyl-4-methyl-2-pymidinamine], the figure is 145 to 147 °C.

As for `CCCCc1ccc(N(CC)c2nc(CC)cc(CC)n2)c(Br)c1` (as salt: hydrochloride) [compound 24], the melting point lay in the range of 116 to 118 °C. On the same count and under the same terms, as for `Cc1cc(C)nc(N(C)c2ccc(I)cc2)n1` (as salt: hydrochloride) [compound 52], the figure is 175 to 177 °C; as for `CCc1ccc(N(C)c2nc(C)cc(C)n2)c(Br)c1` (as salt: hydrochloride) [compound 9, N-(2-bromo-4-ethylphenyl)-N-methyl-4,6-dimethyl-2-pypimidinamine], 126 to 127 °C; as for `Cc1cc(C)nc(N(C)c2ccc(C(C)C)cc2Br)n1` (as salt: hydrochloride) [compound 4, N-(2-bromo-4-(1-methylethyl)phenyl)-N-methyl-4,6-dimethyl-2-pymidinamine], 163 to 164 °C. Compound `Cc1cc(C)nc(N2CCCSc3cc(C(C)C)ccc32)n1` (as salt: hydrochloride) [compound 173] gave a melting point of 157 to 159 °C. Still for that read-out and setting: as for `CCN(c1nc(C)cc(CN2CCN(c3ccccc3OC)CC2)n1)c1ccc(C(C)C)cc1Br` (as salt: HCl) [compound 275], the figure is 102 to 104 °C; as for `CCN(c1nc(C)cc(C)n1)c1ccc(C(C)C)cc1[S+](C)[O-]` (stereo not drawn) [compound 169, N-(2-methylsulfinyl-4-(1-methylethyl)phenyl)-N-ethyl-4,6-dimethyl-2-pyrimidinamine], 144 to 146 °C.

`CCN(c1nc(C)cc(C)n1)c1ccc(C(C)C)cc1Br` (as salt: hydrochloride) [compound 21, N-(2-bromo-4-(1-methylethyl)phenyl)-N-ethyl-4,6dimethyl-2-pyrimidinamine] showed a melting point of 151 to 153 °C. Take `CCN(c1nc(C)cc(CN2CCN(c3ncccn3)CC2)n1)c1ccc(C(C)C)cc1Br` (as salt: HCl) [compound 281]: the melting point was 125 to 127 °C. On the same count and under the same terms, in the case of `CCN(c1nc(C)cc(CN2CCN(c3ccccn3)CC2)n1)c1ccc(C(C)C)cc1Br` (as salt: HCl) [compound 280] it was 117 to 119 °C; in that of `COc1ccc(N(C)c2nc(C)cc(C)n2)c(OC)c1` (as salt: hydrochloride) [compound 2], 112 to 113 °C. In turn, `CCCCc1ccc(N(CC)c2nc(C)cc(C)n2)c(Br)c1` (as salt: hydrochloride) [compound 19] returned a melting point of 124 to 126 °C. For the compound `CCN(c1nc(C)cc(OCCN(C)C)n1)c1ccc(C(C)C)cc1Br` (as salt: hydrochloride) [compound 161], the melting point fell in the range of 143 to 146 °C. Same read-out and setting: as for `CCN(c1nc(C)cc(OC[C@@H]2CCCN2C)n1)c1ccc(C(C)C)cc1SC` (as salt: hydrochloride) [compound 177, N-(2-methylthio4-(1-methylethyl)phenyl)-N-ethyl-4(S)-(N-methyl-2′-pyrrolidinomethoxy)-6-methyl-2-pyrimidinamine], the figure is 101 to 103 °C; as for `C=CCN(c1nc(C)cc(C)n1)c1ccccc1Br` (as salt: hydrochloride) [compound 3], 127 to 129 °C; as for `Cc1cc(C)nc(N(C)c2ccccc2I)n1` (as salt: hydrochloride) [compound 53], 164 to 166 °C.

Compound `CCN(c1nc(C)cc(C(=O)c2c[nH]c3ccccc23)n1)c1ccc(C(C)C)cc1Br` (as salt: HCl) [compound 283] had a melting point of 105 to 107 °C. In the case of `Cc1ccc(N(C)c2nc(C)cc(C)n2)c(Br)c1` (as salt: hydrochloride) [compound 1, N-(2-bromo-4-methylphenyl)-N-methyl-4,6-dimethyl-2-pymidinamine], the melting point is 120 to 121 °C.

Regarding `CCN(c1nc(C)cc(NN)n1)c1ccc(C(C)C)cc1Br` (as salt: hydrochloride) [compound 146], the melting point is 117 to 121 °C. On the same count and under the same terms, as for `CCSc1cc(C(C)C)ccc1N(CC)c1nc(C)cc(C)n1` (as salt: hydrochloride) [compound 175, N-(2-ethylthio-4-(1-methylethyl)phenyl)-N-ethyl-4,6dimethyl-2-pyrimidinamine], the figure is 128 to 130 °C.

On to `CCN(c1nc(C)cc(CN2CCN(c3cnccn3)CC2)n1)c1ccc(C(C)C)cc1Br` [compound 278], for which the Ki (commonly a dissociation constant, usually derived from enzyme kinetics or from competition with a known ligand) at CRF receptor is below 500 nM.

Turning to `CCN(c1nc(C)cc(Cl)n1)c1ccc(C(C)C)cc1I` [compound 167, N-(2-iodo4-(1-methylethyl)phenyl)-N-ethyl-4-chloro-6-methyl-2-pyrimidinamine], at CRF receptor, the Ki was below 500 nM.

Turning to `CCN(c1nc(C)cc(N2CCSC2)n1)c1ccc(C(C)C)cc1I` [compound 171, N-(2-iodo-4-(1-methylethyl)phenyl)-N-ethyl-4-thiazolidino-6-methyl-2-pyrimidinamine], the Ki on CRF receptor is below 500 nM. `CCOc1ccc(N(CC)c2nc(C)cc(C)n2)c(Br)c1` [compound 201]: the Ki at CRF receptor is below 500 nM. Same read-out and setting: as for `CCN(c1nc(C)cc(COCC(=O)N2CCOCC2)n1)c1ccc(C(C)C)cc1Br` [compound 229], the figure is 2000 to 10000 nM. As to `CCN(c1nc(C)cc(C(=O)N2CCN(C)CC2)n1)c1ccc(C(C)C)cc1Br` [compound 63, N-(2-bromo-4-(1-methylethyl)phenyl)-N-ethyl-4-methyl-6-(4-methylpiperazinylcarbonyl)-2-pyrimidinamine], the Ki on CRF receptor (competition with [125I] ovine CRF, 2 h at 22° C., Ki classes) was 2000 to 10000 nM. For `CCN(c1nc(C)cc(C(=O)c2c[nH]c3ccccc23)n1)c1ccc(C(C)C)cc1Br` [compound 283], the inhibitory constant (Ki) at CRF receptor was in the range of 2000 to 10000 nM. As for `CCN(c1nc(C)cc(C)n1)c1ccc(C(C)C)cc1Br` [compound 21, N-(2-bromo-4-(1-methylethyl)phenyl)-N-ethyl-4,6dimethyl-2-pyrimidinamine], at CRF receptor, the Ki was below 500 nM.
